Where “and” joins values, the source holds several entries; their conditions need not be identical. Identical values can stand only once.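 Five concentrations, 48 hours, 96-well plates. GI50 is the concentration that inhibits growth by half. At the TGI there is no net growth.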
Experiments:
Experiment in all cases: NCI tumour cell line growth inhibition, 48 h
786-0 renal = system: 786-0 renal
COLO 205 colon = system: COLO 205 colon
HL-60(TB) leukemia = system: HL-60(TB) leukemia
LOX IMVI melanoma = system: LOX IMVI melanoma
MALME-3M melanoma = system: MALME-3M melanoma
MDA-MB-435 = system: MDA-MB-435
RXF 393 renal = system: RXF 393 renal
SF-295 CNS = system: SF-295 CNS
SN12C renal = system: SN12C renal
UACC-62 melanoma = system: UACC-62 melanoma

SMILES	GI50 (786-0 renal)	TGI (786-0 renal)	GI50 (COLO 205 colon)	TGI (COLO 205 colon)	GI50 (HL-60(TB) leukemia)	TGI (HL-60(TB) leukemia)	GI50 (LOX IMVI melanoma)	TGI (LOX IMVI melanoma)	GI50 (MALME-3M melanoma)	TGI (MALME-3M melanoma)	GI50 (MDA-MB-435)	TGI (MDA-MB-435)	GI50 (RXF 393 renal)	TGI (RXF 393 renal)	GI50 (SF-295 CNS)	TGI (SF-295 CNS)	GI50 (SN12C renal)	TGI (SN12C renal)	GI50 (UACC-62 melanoma)	TGI (UACC-62 melanoma)
COc1ccc(/C(C)=C(\c2ccc(Cl)cc2)c2ccc(OCCN3CCCCC3)cc2)cc1F	2.69 µM	5.3 µM	1.75 µM	5.25 µM	2.85 µM	6.82 µM	2.42 µM	4.64 µM	2.18 µM	4.46 µM	2.71 µM	5.37 µM	2.84 µM	5.75 µM	2.75 µM	5.52 µM	2.75 µM	7.24 µM	3.68 µM	8.9 µM
Cc1cc(N2CCOCC2)nc(N(CCNc2ccnc3cc(Cl)ccc23)Cc2cccs2)n1	1.69 µM	3.12 µM	1.62 µM	3.25 µM	1.95 µM	3.83 µM	1.72 µM	3.18 µM	2.06 µM	3.72 µM	1.76 µM	3.32 µM	1.74 µM	3.47 µM	1.58 µM	3.13 µM	1.9 µM	4.01 µM	1.9 µM	3.65 µM
CC(CCC/C=C/CCCN(C)C(=N)N)CC(C)C1OC(=O)C(C)C(O)/C=C/C(C)C(O)C(C)C(O)C(C)C(O)CCCC(O)CC2(O)OC(CC(OC(=O)CC(=O)O)CC(O)CC(O)C(C)C(O)/C=C/C=C/C1C)CC(O)C2O (stereo not drawn)	2.8 µM and 5.3 µg/mL	7.6 µM and 17.5 µg/mL	1.75 µM and 2.42 µg/mL	3.33 µM and 10.6 µg/mL	6.5 µg/mL	21.2 µg/mL	3.17 µM and 12 µg/mL	11.3 µM and 29 µg/mL	2.37 µM and 2.57 µg/mL	5 µM and 11.7 µg/mL	1.9 µM and 2.45 µg/mL	4.39 µM and 9.24 µg/mL	1.98 µM and 1.89 µg/mL	3.71 µM and 4.59 µg/mL	4.16 µM and 11.7 µg/mL	17 µM and 22.5 µg/mL	2.22 µM and 2.78 µg/mL	4.97 µM and 12 µg/mL	2.13 µM and 8.05 µg/mL	4.52 µM and 19.1 µg/mL
COc1ccc(-c2nccn2-c2cc(OC)c(OC)c(OC)c2)cc1	13.6 µM	> 100 µM	0.598 µM	7.29 µM	25.4 µM	> 100 µM	8.76 µM	> 100 µM	1.96 µM	> 100 µM	0.222 µM	3.25 µM	1.12 µM	26.6 µM	1.78 µM	> 68.1 µM	9.81 µM	> 100 µM	0.675 µM	24.1 µM
NC(=O)NOCC1NC(=O)NC1=O (stereo not drawn)	–	> 100 µM	–	> 100 µM	–	> 100 µM	–	> 100 µM	–	> 100 µM	–	> 100 µM	–	> 100 µM	–	> 100 µM	–	> 100 µM	–	> 100 µM
COc1ccc(C2CC(c3cccc(Nc4ccnc5cc(Cl)ccc45)c3)=NN2c2ccc(Cl)cc2)cc1 (stereo not drawn)	2.94 µM	44 µM	3.78 µM	19.7 µM	4.78 µM	26.9 µM	1.3 µM	13.6 µM	22.7 µM	59.5 µM	0.717 µM	49.6 µM	17.5 µM	74.8 µM	5.8 µM	23.3 µM	13 µM	> 100 µM	0.601 µM	13.3 µM
O=C(NC(c1ccccc1)C(O)C(=O)OCc1ccc2c(c1)C(=O)c1ccccc1C2=O)c1ccccc1 (stereo not drawn)	–	6.4 µM	–	> 100 µM	–	> 100 µM	–	> 83.8 µM	–	37.9 µM	–	> 100 µM	–	8.57 µM	–	69.4 µM	–	47.9 µM	–	53 µM
CN(C)c1ccc(/C=C/C(=O)c2ccc(Nc3nc(Nc4ccc(F)cc4)nc(Nc4ccc(Cl)cc4)n3)cc2)cc1	2.71 µM	14.1 µM	4.26 µM	18.7 µM	1.75 µM	5.34 µM	8.93 µM	47.2 µM	10.7 µM	33.8 µM	3.03 µM	17.3 µM	1.92 µM	6.1 µM	4.78 µM	31.9 µM	15.3 µM	> 100 µM	14 µM	37.9 µM
Oc1ccc(-c2nc(-c3ccc4oc5ccc(-c6[nH]c(-c7ccc(O)cc7)nc6-c6ccccc6)cc5c4c3)c(-c3ccccc3)[nH]2)cc1	5.75 µM	29.8 µM	3.09 µM	8.18 µM	2.79 µM	8.09 µM	–	–	9.07 µM	68 µM	2.85 µM	> 100 µM	2.12 µM	5.45 µM	12.2 µM	45.4 µM	3.39 µM	27 µM	14.7 µM	46.8 µM
Cc1nc2cc(NC(=O)CN3CCN(CCN4C(=O)c5cccc6cccc(c56)C4=O)CC3)ccc2s1	5.91 µM	19.1 µM	4.46 µM	89.6 µM	6.36 µM	26.3 µM	4.15 µM	15.6 µM	4.99 µM	> 100 µM	4.6 µM	19.4 µM	5.46 µM	25.4 µM	3.48 µM	> 100 µM	5.22 µM	> 100 µM	4.98 µM	17.6 µM
CCS(=O)(=O)Nc1ccc(Oc2ccc(F)cc2F)c(-c2cn(C)c(=O)c3[nH]ccc23)c1	0.192 µM	18.1 µM	< 0.01 µM	6.29 µM	< 0.01 µM	0.249 µM	0.0124 µM	0.905 µM	0.202 µM	12.9 µM	< 0.0112 µM	13.3 µM	1.62 µM	14.1 µM	0.0742 µM	20.1 µM	0.981 µM	31.2 µM	< 0.01 µM	6.28 µM
Cc1ccc(SCN2CCCCC2)cc1 (tested in a mixture with another compound)	–	29.9 µM	–	16 µM	–	4.98 µM	–	14.3 µM	–	31.3 µM	–	25.6 µM	–	22.3 µM	–	33.1 µM	–	31.4 µM	–	27.7 µM
